Assay results as given in PMC12503906, “Novel Pyrazolo [1,5‐a]−1,3,5‐Triazine Derivatives as CDK7 Inhibitors: Synthesis and Biological Insights in Pancreatic Ductal Adenocarcinoma Models” (Chemmedchem, 2025).
Like-named read-outs stand apart in the source and are kept apart here.

Legend:
Assay type in all cases: cell-based
[1] = test system: PATU‐T; assay: SRB chemosensitivity assay, PATU‐T cells; settings: read-out: IC50 PATU‐T
Method: Three lines of immortalized PDAC cells were selected as representative phenotypes: mesenchymal (PATU‐T), quasimesenchymal (PANC‐1), and an epithelial clone of SUIT 2 cells (SUIT 2.28). Cells were cultured in noncoated T‐75 and T‐25 flasks under adherent conditions, using 1× DMEM (Gibco, 41,966,029) for PATU‐T and RPMI (Gibco, 21,875,034) for SUIT 2.28 and PANC‐1, both supplemented with 10% NBCS and 1% P/S. Additional employed models were the PDAC3 cells, a primary cell culture, the PSCs, which were immortalized healthy pancreatic cells, and the PATU‐T‐GR, which was a gemcitabine resistant model of PATU‐T. PDAC3 and PSCs were cultivated using complete RPMI medium, while PATU‐T‐GR required complete DMEM medium. For seeding, cells were detached with Trypsin‐EDTA (0.05%) (GibcoTM, 25,300–096) and were consequently counted using the Automated Cell Counter (Luna‐II, Westburg). Cells were then plated on 96‐ or 6‐well plates depending on the planned experiment.
The Sulforhodamine B (SRB) chemosensitivity assay was used to measure cytotoxicity and cell proliferation post drug treatment. At day 0, 3–6 × 10^3 cells were seeded in a 96‐well plate, depending on the cell line. At day 1, cells were attached and ready to be treated. For the calculation of the IC50, drug dilutions for the compounds 1b, 1c, 1d, 1e, 1g, 1hr, 1i, 1j, and LDC4297 (MedChemExpress, HY‐12,653) were prepared in dilution trays and eight different concentrations were included. These were added in triplicates to the cells, which were then incubated for […] at 37 °C in 5% CO2. During day 1, the control plate was fixed with 50% Trichloroacetic acid (TCA), as intended to be the baseline plate used for the normalization of the data. 72 h post‐treatment, the cells were fixed with TCA, and placed at 4 °C for about 2 h. The plates were then washed with distillated water and left to dry under the hood with ventilation. Subsequently, plates were stained with 0.4% SRB for 15 min and washed with 1% acetic acid to remove excess stain. Once dried again, the protein‐bound SRB was dissolved in 10 mM TRIS, and the plates were placed on a shaker for 10 min per plate. Lastly, the absorbance was measured at 492 nm with a spectrophotometer (Synergy HT, BioTek). The absorbance data obtained were normalized to the day 1 control, and the percentage of cell growth in relation to the control was calculated using the following formula. (1) %Cell growth=Mean OD treatment−Mean OD day0/Mean OD control−Mean OD day0×100
The percentage of proliferation and their respective standard deviations were used to perform statistical analysis in GraphPad Prism software v 10 (GraphPad Software, San Diego, CA). Data were normalized to the day 0 control and to their own untreated 72 h control. These were transformed into logarithmic data, and log(inhibitor) versus response analysis was performed for obtaining the IC50 values per cell lines. Each experiment was conducted in triplicates.

[2] = test system: Bax/Bcl‐2; assay: Bax/Bcl‐2 ratio by RT‐PCR, PANC‐1 cells
Method: In order to understand modulation of downstream genes of CDK7, gene expression analysis by qPCR was performed in all cell lines. Cells (5 × 10^5/well) were seeded in 6‐well plates and treated with the compounds 1b and 1g at 1× and 4 × IC50 concentrations. Cell lysates were collected 24 h post‐treatment using 300 µL of TRIzol Reagent (Ambion, 15,596,018) per well. Total RNA was extracted by mixing 60 µL of chloroform to the samples, incubating for 3 min and centrifuging at 12,000 rcf for 15 min at 4 °C. The upper aqueous phase containing RNA was transferred to a new Eppendorf and mixed with 120 µL of cold isopropanol in order to allow the RNA to precipitate. Samples were incubated at RT for 10 min and were then centrifuged at 12,000 rcf for 10 min at 4 °C. The isopropanol was carefully removed, and the pellet was washed twice with 70% ETOH. Pellets were left to air dry and consequently resuspended in RNAse‐free water. Samples were left agitation on a thermomixer at 55 °C for 10 min at 600 rpm and were then quantified through NanoDrop technology (Thermo Scientific, NanoDrop One/One^c). RNA samples were stored at −80 °C.
In order to perform cDNA synthesis, the First Strand cDNA synthesis kit (Thermo Scientific, K1612) was used. The previously isolated RNA was mixed with 1 µL of oligo dT18 primer into a pcr tube. Nuclease free water was added to reach a final volume of 11 µL. Samples were centrifuged at 1200 rcf for 5 min and were then placed on a thermomixer at 65 °C for a few minutes. A master mix was prepared, including 4 µL of 5× reaction buffer, 1 µL of ribolock RNAse inhibitor, 2 µL of dntp mix (10 mM), and 2 µL of M‐mulv reverse transcriptase for each sample. In total 9 µL of master mix were added to each vial. Samples were centrifuged again and were finally synthesized, following a cycle of 60 min at 37 °C and 5 min at 70 °C. cDNA was now finally synthesized and could be stored at −20 °C. RT‐PCRs reactions were performed using SYBR Green (Bio‐Rad, 1,725,271) (5 µL per sample), primer mix (0.3 µM) (2 µL per sample), and cDNA (10 ng µL^− ^1) (3 µL per sample). […] RT‐PCR assays were carried out in a GeneAmp 5700 Sequence Detection System programmed to hold at 50 °C for 30 min, to hold at 95 °C for 10 min, and to complete 45 cycles of 95 °C for […] and 50 °C for 1 min. The genes that were investigated are shown in Table 5 , with their respective forward and reverse primer sequences.

[3] = test system: peptide substrates specific to tyrosine kinases; assay: Kinase activity profiling, PamChip array, peptide substrates / other kinases; settings: PDAC‐3 primary cells, IC50 concentration, 2 h, Pamgene array
Method: A Kinase activity profiling was conducted using a PamChip (Pamgene, s‐Hertogenbosch, The Netherlands) array containing 144 peptide substrates specific to tyrosine kinases to assess activity changes upon treatment with compounds 1b and 1g. Experiments were carried out in PDAC3 cells, using biological triplicates comprising three untreated controls and three samples treated for 2 h with either compound at their respective 1 × IC50 concentrations, following protocols adapted from previous studies.^[ [38] ^] Protein concentrations were quantified using the Bio‐Rad protein assay, which is based on the Bradford method (Bio‐Rad, Hercules, CA). For chip loading, protein lysates were adjusted to a final concentration of 10 µg per array and combined with PamGene MasterMix. During the assay, samples were circulated through the array at 30 °C with one cycle per minute over 60 cycles. Fluorescence data acquisition was performed using a 12‐bit CCD camera, capturing real‐time fluorescence intensities. End‐point spot intensities were analyzed using the open‐source software ScanAnalyze, with background normalization applied. Statistical comparisons were performed using student's t‐test in R (version 3.6.1), followed by false discovery rate (FDR) correction.

Row | SMILES | IC50 ([1]; SRB, 72 h of treatment, average ± SEM, triplicate) | Bax/Bcl‐2 ratio PANC‐1 ([2]; 1 × IC50, 24 h after treatment) | Bax/Bcl‐2 ratio PANC‐1 ([2]; 4 × IC50, 24 h after treatment) | inhibition of the other kinases (other than CDK7) [3] | IC50 ([1]; 72 h)
1 | Nc1ncnc2cc(-c3c[nH]c4ccc(Br)cc34)nn12 [Compound 1b, 7‐(5‐Bromo‐1H‐indol‐3‐yl)pyrazolo[1,5‐a][1,3,5]triazin‐4‐amine] | 1.4 ± 0.2 µM | 4.12 | 2.44 | below 50% | 
2 | Cn1cc(-c2cc3ncnc(N)n3n2)c2cc(Br)ccc21 [Compound 1g, 7‐(5‐Bromo‐1‐methyl‐1H‐indol‐3‐yl)pyrazolo[1,5‐a][1,3,5]triazin‐4‐amine] |  | 6.41 | 1.83 |  | 1.3 ± 0.1 µM
